In assay [1] the test system is E. coli NIHJ. Briefly: Antibiotic sensitivity, paper disc-agar diffusion method. Set-up: key: S (sensitive); R (resistant); I (intermediate). The class given is cell-based. As to conditions: nutrient agar, 2 day's incubation at 28° C., Difco discs, amount/disc per antibiotic. (A growth-free zone around the sample is the usual read-out of agar diffusion tests.)
The test system of assay [2] is S. aureus 209P. The description is as above. The class given is cell-based. Set-up: key: S (sensitive); R (resistant); I (intermediate). The following applies: nutrient agar, 2 day's incubation at 28° C., Difco discs, amount/disc per antibiotic.
The test system of assay [3] is Strain G393-B445. Described as above. It is filed as cell-based, Empedobacter sp. Set-up: key: S (sensitive); R (resistant); I (intermediate). The following applies: nutrient agar, 2 day's incubation at 28° C., Difco discs, amount/disc per antibiotic.
The test system of assay [4] is Staphylococcus aureus A20394. In words: MIC, serial two-fold dilution method (aerobic). It is filed as cell-based. As to conditions: Staphylococcus aureus A20394; Mueller-Hinton agar; inoculum 10^4; read-out: minimum inhibitory concentration (MIC).
Assay [5] has as its system Staphylococcus aureus A9601. Briefly: MIC, serial two-fold dilution method (aerobic). The following applies: Staphylococcus aureus A9601; Mueller-Hinton agar; inoculum 10^4; read-out: minimum inhibitory concentration (MIC). The class given is cell-based.
The test system of assay [6] is Proteus vulgaris A9436. In words: MIC, serial two-fold dilution method (aerobic). It is filed as cell-based. As to conditions: Proteus vulgaris A9436; Mueller-Hinton agar; inoculum 10^4; read-out: minimum inhibitory concentration (MIC).
Assay [7] has as its system Staphylococcus aureus 209P. Briefly: MIC, serial two-fold dilution method (aerobic). The class given is cell-based. The following applies: Staphylococcus aureus 209P; Mueller-Hinton agar; inoculum 10^4; read-out: minimum inhibitory concentration (MIC).
Assay [8] relates to Micrococcus flavus D-12. Briefly: MIC, serial two-fold dilution method (aerobic). It is filed as cell-based. The following applies: D12; Micrococcus flavus D-12; Mueller-Hinton agar; inoculum 10^4; read-out: minimum inhibitory concentration (MIC).
For assay [9], the system named is Bacillus anthracis IID-115. In words: microbe, parasite or virus in culture. The class given is cell-based. As to conditions: Bacillus anthracis, IID115, read-out: minimum inhibitory concentration (MIC).
Assay [10] concerns Staphylococcus aureus A20610. Briefly: MIC, serial two-fold dilution method (aerobic). The class given is cell-based. As to conditions: Staphylococcus aureus A20610; Mueller-Hinton agar; inoculum 10^4; read-out: minimum inhibitory concentration (MIC).
In assay [11] the test system is Staphylococcus aureus A20701. Briefly: MIC, serial two-fold dilution method (aerobic). The class given is cell-based. The following applies: Staphylococcus aureus A20701; Mueller-Hinton agar; inoculum 10^4; read-out: minimum inhibitory concentration (MIC).
The test system of assay [12] is Sarcina lutea PCI-1001. In words: MIC, serial two-fold dilution method (aerobic). As to conditions: Micrococcus luteus, PCI1001; Sarcina lutea PCI-1001; Mueller-Hinton agar; inoculum 10^4; read-out: minimum inhibitory concentration (MIC). It is filed as cell-based.
The test system of assay [13] is Staphylococcus aureus #193. In words: MIC, serial two-fold dilution method (aerobic). The class given is cell-based. The following applies: Staphylococcus aureus #193; Mueller-Hinton agar; inoculum 10^4; read-out: minimum inhibitory concentration (MIC).
Assay [14] concerns Staphylococcus aureus A20239. Briefly: MIC, serial two-fold dilution method (aerobic). It is filed as cell-based. The following applies: Staphylococcus aureus A20239; Mueller-Hinton agar; inoculum 10^4; read-out: minimum inhibitory concentration (MIC).
Assay [15] relates to Staphylococcus aureus A9856. In words: MIC, serial two-fold dilution method (aerobic). The class given is cell-based. The following applies: Staphylococcus aureus A9856; Mueller-Hinton agar; inoculum 10^4; read-out: minimum inhibitory concentration (MIC).
For assay [16], the system named is Staphylococcus aureus BX-1633. Briefly: MIC, serial two-fold dilution method (aerobic). The class given is cell-based. As to conditions: BX1633; Staphylococcus aureus BX-1633; Mueller-Hinton agar; inoculum 10^4; read-out: minimum inhibitory concentration (MIC).
Assay [17] deals with Klebsiella pneumoniae D-11. In words: MIC, serial two-fold dilution method (aerobic). It is filed as cell-based. As to conditions: D11; Klebsiella pneumoniae D-11; Mueller-Hinton agar; inoculum 10^4; read-out: minimum inhibitory concentration (MIC).
Assay [18] has as its system Escherichia coli NIHJ. In words: MIC, serial two-fold dilution method (aerobic). The following applies: Escherichia coli NIHJ; Mueller-Hinton agar; inoculum 10^4; read-out: minimum inhibitory concentration (MIC). The class given is cell-based.
In assay [19] the test system is Pseudomonas aeruginosa D-113. Briefly: MIC, serial two-fold dilution method (aerobic). As to conditions: D113; Pseudomonas aeruginosa D-113; Mueller-Hinton agar; inoculum 10^4; read-out: minimum inhibitory concentration (MIC). It is filed as cell-based.
For assay [20], the system named is Bacillus subtilis ATCC 6633. In words: MIC, serial two-fold dilution method (aerobic). The following applies: ATCC6633; Bacillus subtilis ATCC 6633; Mueller-Hinton agar; inoculum 10^4; read-out: minimum inhibitory concentration (MIC). It is filed as cell-based.
Assay [21] concerns Staphylococcus aureus A22421. In words: MIC, serial two-fold dilution method (aerobic). The class given is cell-based. The following applies: Staphylococcus aureus A22421; Mueller-Hinton agar; inoculum 10^4; read-out: minimum inhibitory concentration (MIC).
Assay [22] deals with Staphylococcus aureus Smith. In words: MIC, serial two-fold dilution method (aerobic). It is filed as cell-based. The following applies: Staphylococcus aureus Smith; Mueller-Hinton agar; inoculum 10^4; read-out: minimum inhibitory concentration (MIC).
The test system of assay [23] is Proteus mirabilis A9554. Briefly: MIC, serial two-fold dilution method (aerobic). It is filed as cell-based. The following applies: Proteus mirabilis A9554; Mueller-Hinton agar; inoculum 10^4; read-out: minimum inhibitory concentration (MIC).
The subject of assay [24] is Staphylococcus aureus A9748. In words: MIC, serial two-fold dilution method (aerobic). The class given is cell-based. The following applies: Staphylococcus aureus A9748; Mueller-Hinton agar; inoculum 10^4; read-out: minimum inhibitory concentration (MIC).

Values after ≈ are worked out from the molar mass of the structure shown. *1 amine or outer side, *2 acyl side, *3 side chain or, on linkers, in order; H or OH if unused. Where a SMILES comes first, the peptide text is derived from it. Bridges are numbered along the chain shown (N, C = ends). Roman numbers before positions name the chains, in order. [ ]: non-standard residue; d: D form. Actinocin(9to1) = Cc1c2oc3c(C)ccc(C(=O)[*:1])c3nc-2c(C(=O)[*:2])c(N)c1=O; NMeV = CN[C@H](C(=O)O)C(C)C; Sar = CNCC(=O)O Bounds are passed on as bounds.

Turning to `Cc1c2oc3c(C)ccc(C(=O)N[C@@H]4C(=O)N[C@H](C(C)C)C(=O)N5CCC[C@H]5C(=O)N(C)CC(=O)N(C)[C@@H](C(C)C)C(=O)O[C@@H]4C)c3nc-2c(C(=O)N[C@@H]2C(=O)N[C@H](C(C)C)C(=O)N3CCC[C@H]3C(=O)N(C)CC(=O)N(C)[C@@H](C(C)C)C(=O)O[C@@H]2C)c(N)c1=O` [Actinomycin D] (I: T[dV]P[Sar][NMeV] / II: T[dV]P[Sar][NMeV]; ester I:1-I:C, II:1-II:C; linker I:N-II:N via Actinocin(9to1)), the “Sensitivity E. coli NIHJ” value in [1] was “R”. The “Sensitivity S. aureus 209P” value in assay [2] is given as “S”. Also, the “Sensitivity Strain G393-B445” value in assay [3] is given as “I”.
As for `NC[C@H]1O[C@H](O[C@H]2[C@H](O)[C@@H](O[C@H]3O[C@H](CO)[C@@H](O)[C@H](N)[C@H]3O)[C@H](N)C[C@@H]2N)[C@H](O)[C@@H](O)[C@@H]1O` [Kanamycin], the MIC came out at 0.8 µg/mL (≈ 1.65 µM) in [4]; 0.4 µg/mL (≈ 0.826 µM) in assay [5]; 0.4 µg/mL (≈ 0.826 µM) in [6]; 0.4 µg/mL (≈ 0.826 µM) in assay [7]; 3.1 µg/mL (≈ 6.4 µM) in [8]; 0.4 µg/mL (≈ 0.826 µM) in assay [9]. In addition, the MIC in [10] was 100 µg/mL (≈ 206 µM); in assay [11] it was 100 µg/mL (≈ 206 µM); in [12] it was 3.1 µg/mL (≈ 6.4 µM); in assay [13], 0.8 µg/mL (≈ 1.65 µM); in assay [14], over 100 µg/mL; in assay [15], 0.8 µg/mL (≈ 1.65 µM). In addition, the MIC in [16] is 0.8 µg/mL (≈ 1.65 µM); in assay [17], 0.2 µg/mL (≈ 0.413 µM); in assay [18], 0.8 µg/mL (≈ 1.65 µM); in assay [19], over 100 µg/mL; in assay [20] it was 0.2 µg/mL (≈ 0.413 µM); in assay [21], over 100 µg/mL. In addition, the MIC in [22] turned out to be 0.4 µg/mL (≈ 0.826 µM); in [23], 0.4 µg/mL (≈ 0.826 µM); in [24] it was 1.6 µg/mL (≈ 3.3 µM).
Take `CC1(C)S[C@@H]2[C@H](NC(=O)Cc3ccccc3)C(=O)N2[C@H]1C(=O)O` [Pencillin G]: in assay [1], the “Sensitivity E. coli NIHJ” value is listed as “I”. The “Sensitivity S. aureus 209P” value in [2] is on record as “S”. Besides, the “Sensitivity Strain G393-B445” value in assay [3] is “S”.
For `[H]/N=C(/N)N[C@H]1[C@H](O)[C@@H](O)[C@H](O[C@@H]2O[C@@H](C)[C@](O)(C=O)[C@H]2O[C@@H]2O[C@@H](CO)[C@H](O)[C@@H](O)[C@@H]2NC)[C@@H](N/C(N)=N\[H])[C@@H]1O` [Streptomycin], in assay [1], the “Sensitivity E. coli NIHJ” value is on record as “I”. In assay [2], the “Sensitivity S. aureus 209P” value is “I”. Also, in assay [3], the “Sensitivity Strain G393-B445” value is on record as “S”.
Consider `CN(C)[C@@H]1C(O)=C(C(N)=O)C(=O)[C@@]2(O)C(O)=C3C(=O)c4c(O)cccc4[C@@](C)(O)[C@H]3C[C@@H]12` [Tetracycline], for which, in [1], the “Sensitivity E. coli NIHJ” value is “S”. The “Sensitivity S. aureus 209P” value in assay [2] was “S”. Also, the “Sensitivity Strain G393-B445” value in assay [3] was “S”.
Take Polymyxin B: in assay [1], the “Sensitivity E. coli NIHJ” value is “R”. In addition, the “Sensitivity S. aureus 209P” value in assay [2] is “R”. Besides, the “Sensitivity Strain G393-B445” value in assay [3] is on record as “R”.

The record behind these values is US4409210A, “Antibiotic compound” (priority 1982, dated 1983).
